What was measured:
[1] = molecular target: T1, human A1 adenosine receptor (Homo sapiens, UniProt P30542); conditions: cited from earlier work
T1 sequence (P30542 1-326): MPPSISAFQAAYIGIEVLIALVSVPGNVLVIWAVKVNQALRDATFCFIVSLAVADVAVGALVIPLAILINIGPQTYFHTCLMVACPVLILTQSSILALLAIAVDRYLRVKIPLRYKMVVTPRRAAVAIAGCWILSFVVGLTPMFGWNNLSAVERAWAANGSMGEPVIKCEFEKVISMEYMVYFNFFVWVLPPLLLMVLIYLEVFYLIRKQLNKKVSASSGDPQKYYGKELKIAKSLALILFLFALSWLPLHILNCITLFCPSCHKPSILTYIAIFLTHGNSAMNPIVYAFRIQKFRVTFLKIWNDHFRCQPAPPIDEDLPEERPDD

[2] = molecular target: T2, human A2a receptor subtype (Homo sapiens, UniProt P29274); assay: Adenosine 2a receptor subtype competition radioligand binding, [3H]CGS-21680, HEK293 membranes; conditions: @ 10 μM
T2 construct: expressed in transfected cells; host or cells: HEK-293 (Cadus clone #5)

[3] = molecular target: T3, human A1 receptor subtype (Homo sapiens, UniProt P30542)
T3 sequence (P30542 1-326): T1 sequence (P30542 1-326)

[4] = molecular target: T4, human A3 receptor subtype (Homo sapiens, UniProt P0DMS8); assay: Adenosine 3 receptor competition radioligand binding, [125I]AB-MECA, HEK293 membranes; conditions: for properties relative to compound 1720: A3 affinity, A3/A1 selectivity, solubility as in Table 3
T4 construct: expressed in transfected cells; host or cells: HEK293
T4 sequence (P0DMS8 1-318): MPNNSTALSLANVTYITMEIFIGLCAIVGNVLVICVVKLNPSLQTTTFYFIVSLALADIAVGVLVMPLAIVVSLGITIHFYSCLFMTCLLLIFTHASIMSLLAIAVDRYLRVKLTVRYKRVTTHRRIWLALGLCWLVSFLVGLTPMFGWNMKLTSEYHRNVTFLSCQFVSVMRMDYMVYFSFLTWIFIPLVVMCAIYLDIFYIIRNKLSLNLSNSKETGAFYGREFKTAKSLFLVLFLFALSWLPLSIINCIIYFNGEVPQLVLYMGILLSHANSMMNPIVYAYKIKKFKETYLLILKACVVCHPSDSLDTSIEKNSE

T2 sequence (P29274 whole entry): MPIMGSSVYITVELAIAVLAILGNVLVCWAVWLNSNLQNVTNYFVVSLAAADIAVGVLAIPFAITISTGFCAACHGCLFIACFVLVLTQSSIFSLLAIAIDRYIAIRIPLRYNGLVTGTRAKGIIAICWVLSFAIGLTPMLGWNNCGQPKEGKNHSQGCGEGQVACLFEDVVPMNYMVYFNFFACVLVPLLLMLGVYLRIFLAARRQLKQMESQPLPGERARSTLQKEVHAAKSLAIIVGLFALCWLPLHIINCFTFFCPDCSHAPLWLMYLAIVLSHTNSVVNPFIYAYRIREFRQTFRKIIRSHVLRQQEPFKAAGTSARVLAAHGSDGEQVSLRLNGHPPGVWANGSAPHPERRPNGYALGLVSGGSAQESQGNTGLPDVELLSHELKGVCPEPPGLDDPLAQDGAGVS

Structure (SMILES): CC(Cc1ccccc1)Nc1ncnc2c1ncn2C1OC(CO)C(O)C1O (single isomer, unassigned; (-)) [R-PIA, (−)-N6-(2-phenylisopropyl)-adenosine]
- reported affinity [1]: approximately 50 nM

Structure (SMILES): CNC(=O)NCCCNc1nc(-c2ccccc2)nc2[nH]c(C)c(C)c12 [Compound 1310]
- % activity A2a [2]: 76%

Structure (SMILES): NC(=O)[C@@H]1C[C@@H](O)CN1c1nc(-c2ccccc2)nc2[nH]ccc12 [Compound 1631, (2S, 4R)-4-Hydroxy-1-(2-phenyl-7H-pyrrolo[2,3-d]pyrimidin-4-yl)-pyrrolidine-2-carboxylic acid amide methane sulfonate]
- A1 receptor binding affinity relative to reference compounds 1318 or 1319 [3]: equaled or surpassed

Structure (SMILES): c1ccc(-c2nc(NCCc3cnc[nH]3)c3cc[nH]c3n2)cc1 [Compound 1720, [2-(3H-Imidazol-4-yl)-ethyl]-(2-phenyl-7H-pyrrolo[2,3-d]pyrimidin-4-yl)-amine]
- melting point: 234 to 235 °C
- A3 receptor binding affinity relative to reference compound 1308 ([4]; relative to reference compound 1308): greater than 10 times

Structure (SMILES): Clc1cccc(-c2nc(NCCc3cnc[nH]3)c3cc[nH]c3n2)c1 [Compound 1721]
- properties relative to compound 1720 [4]: superior
- Binding Affinity for A3 receptor relative to compound 1720 [4]: Higher

Structure (SMILES): Clc1cccc(-c2nc(NCCc3ccccn3)c3cc[nH]c3n2)c1 [Compound 1722]
- melting point: 199 to 200 °C

Structure (SMILES): Clc1cccc(-c2nc(NCCCn3ccnc3)c3cc[nH]c3n2)c1 [Compound 1723]
- melting point: 183 to 185 °C

Structure (SMILES): Cc1cc2c(NCCc3c[nH]cn3)nc(-c3cccc(Cl)c3)nc2[nH]1 [Compound 1731]
- properties relative to compound 1720 [4]: superior
- Binding Affinity for A3 receptor relative to compound 1720 [4]: Similar

Structure (SMILES): c1ccc(-c2nc(N3CCc4nc[nH]c4C3)c3cc[nH]c3n2)cc1 [Compound 1733]
- properties relative to compound 1720 [4]: superior
- Binding Affinity for A3 receptor relative to compound 1720 [4]: Similar
